Reference: patent US20110003015A1, “STABILIZED COMPOSITION COMPRISING AT LEAST ONE ADRENERGIC COMPOUND” (ALK AG, priority 2009, published 2011)
Like-named read-outs stand apart in the source and are kept apart here.

Columns and labels:
[1] = at the metabisulfite levels contemplated; 60° C.
Protocol: A 1.1 mg/ml solution of adrenaline (6.004×10^−3 M), in the form of the tartrate, pH 3.4 and containing 0.6% sodium chloride was used. A range of metabisulfite antioxidant concentrations, with and without admixture of 0.25% di-sodium edetate as chelating agent were tested. The metabisulfite/adrenaline molar ratios tested were 0.1, 0.2, 0.5, 1.0 and 1.5, which correspond to sulfite/adrenaline ratios of 0.2, 0.4, 1.0, 2.0 and 3.0, respectively. For the ease of reference to the general description and claims of this specification, the said values correspond to a molar ratio of adrenaline to sulfite of 5.0, 2.5, 1.0, 0.5 and 0.33, respectively.
The accelerated test temperature was 60° C., protected from light, and samples were pulled at 0, 7, 14, 21 and 28 days. At each pull point, the appearance of the test solution was assessed, the pH measured and the solution assayed for adrenaline content. The appearance of degradation products was noted as area %.
[adr]^+ relates to samples containing 0.025% di-sodium edetate, whereas [adr] relates to samples containing no chelating agent.

[2] = Protocol: The formulation solutions were prepared at a level of 1.0 mg/ml adrenaline (in the form of the tartrate), pH 3.4 containing, 0.6% sodium chloride, with various molar ratios (0.25-0.59) of sodium metabisulfite added. The metabisulfite/adrenaline molar ratios tested were 0.25, 0.34, 0.42, 0.5 and 0.59, which correspond to sulfite/adrenaline ratios of 0.5, 0.68, 0.84, 1.0 and 1.18, respectively. For the ease of reference to the general description and claims of this specification, the said values correspond to a molar ratio of adrenaline to sulfite of 2.0, 1.47, 1.19, 1.0 and 0.85, respectively.
Each sample solution was split into two lots. For each sample solution, one lot was placed at the accelerated test temperature of 60° C., protected from light and the other lot placed in a photo-stability cabinet at 25° C. which provided 13400 lux visible light, 1.50 W.h/m^2 UV. Samples were pulled from both conditions at 0, 7, 14 and 28 days At each pull point, the appearance of the test solution was assessed, the pH measured and the adrenaline content measured together with impurities.

Remark: listed apart in the source

| molar ratio of metabisulfite to adrenaline in which stability of adrenaline is improved [2] | optimum sulfite:adrenaline ratio ([2]; Examples 2 and 3 summarised, 60° C., FIGS. 8 and 9) | first choice of metabisulfite content with respect to adrenaline ([2]; considering both thermal and photo stresses) | best metabisulfite:adrenaline ratio on the basis of total impurities ([2]; heat stress 60° C.) | best metabisulfite:adrenaline ratio on the basis of total impurities ([2]; photo-stress, 25° C., 13400 lux visible light, 1.50 W.h/m^2 UV) | pH for maximum stability of epinephrine in solution | SMILES | advantage of using a chelating agent for adrenaline solution stability [1] |
| --- | --- | --- | --- | --- | --- | --- | --- |
|  |  |  |  |  |  | O=C([O-])CN(CCN(CC(=O)[O-])CC(=O)O)CC(=O)O.[Na+].[Na+] [di-sodium edetate] | no advantage |
| 0.25-0.59 | about 1.0 | half molar | 0.42 | 0.5 | about 3.4 | CNC[C@H](O)c1ccc(O)c(O)c1 [adrenaline, (R)-4-(1-hydroxy-2-(methylamino)ethyl)benzene-1,2-diol] |  |
